Experimental data from US20090191173A1, “Induction Of Neurogenesis And Stem Cell Therapy In Combination With Copolymer 1” (priority 2004, published 2009).

B1: rTNF-α: recombinant mouse TNF-α (protein)
chain: LRSSSQNSSDKPVAHVVANHQVEEQLEWLSQRANALLANGMDLKDNQLVVPADGLYLVYSQVLFKGQGCPDYVLLTHTVSRFAISYQEKVNLLSAVKSPCPKDTPEGAELKPWYEPIYLGGVFQLEKGDQLSAEVNLPKYLDFAESGQVYFGVIAL

Tests used:
Type in all cases: cell-based, mouse
[1] = test system: neural progenitor cells (NPCs); test: Neurogenesis from NPCs co-cultured with microglia pre-activated by aggregated Aβ and cytokines; conditions: 10 days; Aβ 5 μM 48 h, cytokines 10 ng/ml
Protocol: (xx) Reagents. Recombinant mouse IFN-γ and IL-4 (both containing endotoxin at a concentration below 0.1 ng/μg cytokine) were obtained from R&D Systems (Minneapolis, Minn.). β-amyloid peptides [amyloid protein fragment 1-40 and 1-42 (Aβ1-40/1-42)] were purchased from Sigma-Aldrich, St. Louis, Mo. The Aβ peptides were dissolved in endotoxin-free water, and Aβ aggregates were formed by incubation of Aβ, as described (Ishii et al., 2000). (xxv) Neural progenitor cell culture. Coronal sections (2 mm thick) of tissue containing the subventricular zone of the lateral ventricle were obtained from the brains of adult C57B1/6J mice. […] After centrifugation at 110×g for 15 min at room temperature, the tissue was mechanically dissociated by pipette trituration. Cells obtained from single-cell suspensions were plated (3500 cells/cm^2) in 75-cm^2 Falcon tissue-culture flasks (BD Biosciences, San Diego, Calif.), in NPC-culturing medium [Dulbecco's modified Eagles's medium (DMEM)/F12 medium (Gibco/Invitrogen, Carlsbad, Calif.) containing 2 mM L-glutamine, 0.6% glucose, 9.6 μg/ml putrescine, 6.3 ng/ml progesterone, 5.2 ng/ml sodium selenite, 0.02 mg/ml insulin, 0.1 mg/ml transferrin, 2 μg/ml heparin (all from Sigma-Aldrich, Rehovot, Israel), fibroblast growth factor-2 (human recombinant, 20 ng/ml), and epidermal growth factor (human recombinant, 20 ng/ml; both from Peprotech, Rocky Hill, N.J.)]. Spheres were passaged every 4-6 days and replated as single cells. Green fluorescent protein (GFP)-expressing NPCs were obtained as previously described (Pluchino et al., 2003). (xxvi) Primary microglial culture. Brains from neonatal (P0-P1) C57B1/6J mice were stripped of their meninges and minced with scissors under a dissecting microscope (Zeiss, Stemi DV4, Germany) in Leibovitz-15 medium (Biological Industries, Kibbutz Beit Ha-Emek, Israel). […] The cell suspension was washed in culture medium for glial cells [DMEM supplemented with 10% fetal calf serum (FCS; Sigma-Aldrich, Rehovot), L-glutamine (1 mM), sodium pyruvate (1 mM), penicillin (100 U/ml), and streptomycin ([…])] and cultured at 37° C./5% CO2 in 75-cm^2 Falcon tissue-culture flasks (BD Biosciences) coated with poly-D-lysine (PDL) (10 mg/ml; Sigma-Aldrich, Rehovot) in borate buffer (2.37 g borax and 1.55 g boric acid dissolved in 500 ml sterile water, pH 8.4) for 1 h, then rinsed thoroughly with sterile, glass-distilled water. Half of the medium was changed after 6 h in culture and every 2nd day thereafter, starting on day 2, for a total culture time of 10-14 days. […]

aNPCs = test: Neuronal differentiation of aNPCs with CD4+ T cells, T cell-conditioned medium or cytokines; conditions: 5 days in culture with cytokine, concentrations as low as 1 ng/ml
Protocol: (xvii) Co-culturing of neural progenitor cells and T cells. CD4+ T cells were purified from lymph nodes of 8-week-old C57B16/J mice as previously described (Kipnis et al., 2004). T cells were activated in RPMI medium supplemented with L-glutamine (2 mM), 2-mercaptoethanol (5×10^−5 M), sodium pyruvate (1 mM), penicillin (100 IU/ml), streptomycin (100 μg/ml), nonessential amino acids (1 ml/100 ml), and autologous serum 2% (v/v) in the presence of mouse recombinant IL-2 (mrIL-2; 5 ng/ml) and soluble anti-CD28 and anti-CD3. antibodies (1 ng/ml). T cells were co-cultured (5×10^4 cells/well) with aNPCs (5×10^4 cells/well) for 5 d on cover slips coated with Matrigel (BD Biosciences) in 24-well plates. The cultures were then fixed with 2.5% paraformaldehyde in PBS for 30 min at room temperature and stained for neuronal markers.
We therefore sought to determine whether direct interaction between aNPCs and T cells would also result in an altered pattern of aNPC differentiation. To address this question, we activated CD4+ T cells in vitro by a cognate protocol (with anti-CD3 antibodies, anti-CD28 antibodies, and IL-2) for 24 h and then allowed their activation to continue in co-cultures with aNPCs in a transwell culture system. […] After 5 days in culture the aNPCs in the lower chamber were fixed and analyzed for the appearance of newly formed neurons. […]

[2] = test system: neural progenitor cells (NPCs); test: Oligodendrocyte differentiation (NG2, RIP, GalC) of NPCs co-cultured with activated microglia; conditions: agent added to NPCs co-cultured with MG(IFN-γ)
Protocol: (iii) Neural progenitor cell (NPC) culture. Coronal sections (2 mm thick) of tissue containing the subventricular zone of the lateral ventricle were obtained from the brains of adult C57B16/J mice. The tissue was minced and then incubated for digestion at 37° C., 5% CO2 for 45 min in Earle's balanced salt solution containing 0.94 mg/ml papain (Worthington, Lakewood, N.J.) and 0.18 mg/ml of L-cysteine and EDTA. After centrifugation at 110×g for 15 min at room temperature, the tissue was mechanically dissociated by pipette trituration. Cells obtained from single-cell suspensions were plated (3500 cells/cm^2) in 75-cm^2 Falcon tissue-culture flasks (BD Biosciences, Franklin Lakes, N.J.), in NPC-culturing medium [Dulbecco's modified Eagles's medium (DMEM)/F12 medium (Gibco/Invitrogen, Carlsbad, Calif.) containing 2 mM L-glutamine, 0.6% glucose, 9.6 μg/ml putrescine, 6.3 ng/ml progesterone, 5.2 ng/ml sodium selenite, 0.02 mg/ml insulin, 0.1 mg/ml transferrin, 2 μg/ml heparin (all from Sigma-Aldrich, Rehovot, Israel), fibroblast growth factor-2 (human recombinant, 20 ng/ml), and epidermal growth factor (human recombinant, 20 ng/ml; both from Peprotech, Rocky Hill, N.J.)]. Spheres were passaged every 4-6 days and replated as single cells. Green fluorescent protein (GFP)-expressing neural progenitor cells (NPCs) were obtained as previously described (Pluchino et al., 2003). […]

Molecule | neurogenesis (GFP+/βIIIT+ cells) from NPCs co-cultured with treated microglia [1] | β-III-tubulin expression in aNPCs (aNPCs) | oligodendrogenesis induced by MG(IFN-γ) [2]
Aβ(1-40): aggregated amyloid protein fragment 1-40 | blocked neurogenesis and decreased the number of NPCs | – | –
Aβ(1-42): aggregated amyloid protein fragment 1-42 | negative effect was not exhibited | – | –
IL-4: recombinant interleukin-4 | partially counteracted the adverse effect of the aggregated Aβ | no change in β-III-tubulin expression | –
B1 | – | – | negative effect
